The values below come from patent US6747023B1 (Daiichi Pharmaceutical Co., Ltd., priority 1998, dated 2004).

For the experiment, the target named is T1, human FXa (Homo sapiens, UniProt P00742).
T1 construct: purchased Cosmobio-ERL HFXa-1011
The experiment is described as follows: Measurement of FXa inhibitory action (IC50). It is filed as biochemical. The conditions noted are these: for IC50: 0.05 U/ml human FXa, substrate S2222, absorbance at 405 nm, room temperature, read-out: Concentration (nM) of the sample at which 50% of Fxa activity is inhibited; for pIC50: same test as Tables 1-6, read-out: FXa 50% inhibitory concentrations. On the procedure: Measurement of FXa Inhibitory Action (IC50)
From the below-described equation, an inhibitory ratio % of each sample was determined.
Inhibitory ratio (%)=(1−OD of sample÷OD of control)×100

pIC50: −log10 of the molar value. Counter-ions that a name gives are not always drawn. Like-named read-outs stand apart in the source and are kept apart here.

T1 sequence (P00742 235-488 limits assumed): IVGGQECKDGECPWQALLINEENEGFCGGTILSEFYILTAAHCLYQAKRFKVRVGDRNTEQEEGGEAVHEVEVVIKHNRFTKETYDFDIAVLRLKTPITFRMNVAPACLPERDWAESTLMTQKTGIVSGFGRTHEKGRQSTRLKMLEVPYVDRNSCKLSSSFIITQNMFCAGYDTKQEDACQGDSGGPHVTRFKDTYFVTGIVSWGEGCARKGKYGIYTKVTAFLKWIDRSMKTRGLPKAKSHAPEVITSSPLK
T1 sequence (P00742 41-179 partner limits assumed): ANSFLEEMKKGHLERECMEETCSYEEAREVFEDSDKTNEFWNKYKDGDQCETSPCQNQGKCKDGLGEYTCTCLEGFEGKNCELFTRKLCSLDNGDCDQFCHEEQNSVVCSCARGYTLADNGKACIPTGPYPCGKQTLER

On to `O=C(c1cnc(-c2ccncc2)nc1)N1CCN(S(=O)(=O)c2cc3cc(Cl)ccc3[nH]2)CC1` [Example A-131, 1-[(5-Chloroindol-2-yl)sulfonyl]-4-[[2-(pyridin-4-yl)pyrimidin-5-yl]carbonyl]piperazine], for which the IC50 came to 19 nM.

Turning to `O=C(c1ccc(-c2ccccn2)cc1)N1CCN(S(=O)(=O)c2cc3cc(Cl)ccc3[nH]2)CC1` [Example A-90, 1-[(5-Chloroindol-2-yl)sulfonyl]-4-[4-(pyridin-2-yl)benzoyl]piperazine hydrochloride], the IC50 came to 16 nM.

Regarding `O=C(CC1CN(S(=O)(=O)c2cc3cc(Cl)ccc3[nH]2)CCN1C(=O)C1CC=C(c2cc[n+]([O-])cc2)CC1)N1CCCCC1` (stereo not shown) [Example A-259, 4-[4-[[4-[(5-Chloroindol-2-yl)sulfonyl]-2-[(piperidin-1-yl)carbonylmethyl]piperazin-1-yl]carbonyl]-1-cyclohexen-1-yl]pyridine N-oxide], the IC50 was found to be 3.5 nM.

Regarding `C[n+]1ccc2nc(C(=O)N3CCN(S(=O)(=O)c4ccc5cc(Cl)ccc5c4)CC3)sc2c1` [Example B-61], the pIC50 is 7.52.

Consider `O=C(CC1CN(S(=O)(=O)c2cc3cc(Cl)ccc3[nH]2)CCN1C(=O)c1ncc(-c2cc[n+]([O-])cc2)s1)N1CCCC1` (stereo not shown) [Example A-298, 4-[2-[[4-[(5-Chloroidol-2-yl)sulfonyl]-2-[(pyrrolidin-1-yl)carbonylmethyl]piperazin-1-yl]carbonyl]thiazol-5-yl]pyridine N-oxide], for which the IC50 turned out to be 0.7 nM.

As for “1-[(5-Chloroindol-2-yl)sulfonyl]-4-[4-methyl-2-(pyridin-4-yl)thiazol-5-yl]piperazine [Example A-296]”, the IC50 came to 1.3 nM.

Take `O=C(c1ccc(-c2ccncc2)cc1)N1CCN(S(=O)(=O)c2ccc3cc(Cl)ccc3c2)CC1` [Example A-1, 1-[(6-Chloronaphthalen-2-yl)sulfonyl]-4-[4-(pyridin-4-yl)benzoyl]piperazine hydrochloride]: the IC50 was found to be 123 nM.

With `O=C(c1ccc(-c2ccncc2)cc1)N1CCN(S(=O)(=O)c2cc3ccc(Cl)cc3s2)CC1` [Example A-97, 1-[(6-Chlorobenzo[b]thien-2-yl)sulfonyl]-4-[4-(pyridin-4-yl)benzoyl]piperazine hydrochloride], the IC50 was determined as 82 nM.

For `NC(=O)C[C@@H]1CN(S(=O)(=O)c2ccc3cc(Cl)ccc3c2)C[C@H](CC(N)=O)N1C(=O)c1ccc(-c2ccncc2)cc1` [Example A-173, cis-2,6-Bis(carbamoylmethyl)-4-[(6-chloronaphthalen-2-yl)sulfonyl]-1-[4-(pyridin-4-yl)benzoyl]piperazine], the IC50 was found to be 10 nM.

As for `O=C(c1ccc(-c2ccccn2)cc1)N1CCN(S(=O)(=O)c2ccc3cc(Cl)ccc3c2)CC1` [Example A-17, 1-[(6-Chloronaphthalen-2-yl)sulfonyl]-4-[4-(pyridin-2-yl)benzoyl]piperazine hydrochloride], the IC50 worked out at 180 nM.

`CN1CCc2nc(C(=O)N3CCN(S(=O)(=O)c4ccc5cc(Cl)ccc5c4)CC3CC(=O)N3CCOCC3)sc2C1` (stereo not shown) [Example B-63, 4-[(6-Chloronaphthalen-2-yl)sulfonyl]-1-[(6-methyl-4,5,6,7-tetrahydrothiazolo[5,4-c]pyridin-2-yl)carbonyl]-2-[[(morpholin-4-yl)carbonyl]methyl]piperazine hydrochloride]: the pIC50 is 7.90.

In the case of `O=C(c1cnc(-c2cc[n+]([O-])cc2)nc1)N1CCN(S(=O)(=O)c2cc3cc(Cl)ccc3[nH]2)CC1` [Example A-135, 4-[5-[[4-[(5-Chloroindol-2-yl)sulfonyl]piperazin-1-yl]carbonyl]pyrimidin-2-yl]pyridine N-oxide], the IC50 is 14 nM.

In the case of `C#Cc1ccc2[nH]c(S(=O)(=O)N3CCN(C(=O)c4ncc(-c5cc[n+]([O-])cc5)s4)CC3)cc2c1` [Example A-231, 4-[2-[[4-[(5-Ethynylindol-2-yl)sulfonyl]piperazin-1-yl]carbonyl]thiazol-5-yl]pyridine N-oxide], the IC50 stood at 2.3 nM.

For `O=C(c1ccc(-c2ccncc2)cc1)N1CCN(S(=O)(=O)c2cc3cc(Cl)ccc3s2)CC1` [Example A-96, 1-[(5-Chlorobenzo[b]thien-2-yl)sulfonyl]-4-[4-(pyridin-4-yl)benzoyl]piperazine hydrochloride], the IC50 was 450 nM.

Regarding `O=C(c1ccc(-c2cc[n+]([O-])cc2)cc1)N1CCN(S(=O)(=O)c2cc3ccc(Cl)cc3[nH]2)CC1` [Example A-106, 4-[4-[[4-[(6-Chloroindol-2-yl)sulfonyl]piperazin-1-yl]carbonyl]phenyl]pyridine N-oxide], the IC50 worked out at 420 nM.

Regarding `O=C(c1ccc(-c2ccccn2)cc1)N1CCN(S(=O)(=O)c2cc3ccc(Cl)cc3s2)CC1` [Example A-98, 1-[(6-Chlorobenzo[b]thien-2-yl)sulfonyl]-4-[4-(pyridin-2-yl)benzoyl]piperazine hydrochloride], the IC50 was determined as 125 nM.

With `O=C(c1ccc(-c2cc[n+]([O-])cc2)cc1)N1CCN(S(=O)(=O)c2cc3ccc(Cl)cc3s2)CC1` [Example A-116, 4-[4-[[4-[(6-Chlorobenzo[b]thien-2-yl)sulfonyl]piperazin-1-yl]carbonyl]phenyl]pyridine N-oxide], the IC50 was 8.6 nM.

Regarding “4-[(6-Chlorobenzo[b]thien-2-yl)sulfonyl]-2-(hydroxymethyl)-1-[5-(pyridin-4-yl)pyrimidin-2-yl]piperazine hydrochloride [Example A-277]”, the IC50 turned out to be 2.7 nM.

On to `O=C(c1ccc(-c2ccncc2)cc1)N1CCN(S(=O)(=O)c2cc3ccc(Cl)cc3o2)CC1` [Example A-86, 1-[(6-Chlorobenzo[b]furan-2-yl)sulfonyl]-4-[4-(pyridin-4-yl)benzoyl]piperazine], for which the IC50 is over 10000 nM.

For `NC(=O)CC1CN(S(=O)(=O)c2cc3cc(Cl)ccc3[nH]2)CCN1C(=O)c1ccc(-c2ccncc2)cc1` (stereo not shown) [Example A-130, 2-Carbamoylmethyl-4-[(5-chloroindol-2-yl)sulfonyl]-1-[4-(pyridin-4-yl)benzoyl]piperazine], the IC50 is 3.6 nM.

Consider `Cc1cc(-c2cnc(C(=O)N3CCN(S(=O)(=O)c4cc5cc(Cl)ccc5[nH]4)CC3)s2)cc[n+]1[O-]` [Example A-229, 4-[2-[[4-[(5-Chloroindol-2-yl)sulfonyl]piperazin-1-yl]carbonyl]thiazol-5-yl]-2-methylpyridine N-oxide], for which the IC50 is 1.6 nM.

Regarding `C#Cc1ccc2[nH]c(S(=O)(=O)N3CCN(C(=O)c4ccc(-c5cc[n+]([O-])cc5)cc4)CC3)cc2c1` [Example A-120, 4-[4-[[4-[(5-Ethynylindol-2-yl)sulfonyl]piperazin-1-yl]carbonyl]phenyl]pyridine N-oxide], the IC50 came out at 14 nM.

Turning to `Cn1c(S(=O)(=O)N2CCN(C(=O)c3ccc(-c4ccncc4)cc3)CC2)cc2cc(Cl)ccc21` [Example A-91, 1-[(5-Chloro-1-methylindol-2-yl)sulfonyl]-4-[4-(pyridin-4-yl)benzoyl]piperazine], the IC50 is 7000 nM.

Regarding `Cc1c(S(=O)(=O)N2CCN(C(=O)c3ccc(-c4ccncc4)cc3)CC2)sc2ccc(Cl)cc12` [Example A-83, 1-[(5-Chloro-3-methylbenzo[b]thien-2-yl)sulfonyl]-4-[4-(piridin-4-yl)benzoyl]piperazine], the IC50 came out at 2800 nM.

Turning to `Cc1cc(-c2cnc(C(=O)N3CCN(S(=O)(=O)c4cc5cc(Cl)ccc5[nH]4)CC3)nc2)ccn1` [Example A-186, 1-[(5-Chloroindol-2-yl)sulfonyl]-4-[[5-(2-methylpyridin-4-yl)pyrimidin-2-yl]carbonyl]piperazine], the IC50 is 1.9 nM.

Consider `O=C(c1ccc(-c2ccncc2)cc1)N1CCN(S(=O)(=O)c2cc3cc(Cl)ccc3[nH]2)CC1` [Example A-101, 1-[(5-Chloroindol-2-yl)sulfonyl]-4-[4-(pyridin-4-yl)benzoyl]piperazine], for which the IC50 was found to be 9.5 nM.

With `O=C(c1ncc(-c2cc[n+]([O-])cc2)s1)N1CCN(S(=O)(=O)c2cc3ccc(Cl)cc3s2)CC1` [Example A-239, 4-[2-[[4-[(6-Chlorobenzo[b]thien-2-yl)sulfonyl]piperazin-1-yl]carbonyl]thiazol-5-yl]pyridine N-oxide], the IC50 stood at 3.5 nM.

As to `O=C(c1ccc(-c2cc[n+]([O-])cc2)cc1)N1CCN(S(=O)(=O)c2cc3cc(Cl)ccc3[nH]2)CC1` [Example A-107, 4-[4-[[4-[(5-Chloroindol-2-yl)sulfonyl]piperazin-1-yl]carbonyl]phenyl]pyridine N-oxide], the IC50 came out at 4.7 nM.

In the case of `O=C(c1cnccc1-c1ccncc1)N1CCN(S(=O)(=O)c2ccc3cc(Cl)ccc3c2)CC1` [Example A-4, hydrochloride], the IC50 amounted to 54 nM.

On to `CN1CCc2nc(C(=O)N3CCN(S(=O)(=O)c4cc5cc(Cl)ccc5[nH]4)CC3CC(=O)N3CCOCC3)sc2C1` (stereo not shown) [Example B-99, hydrochloride], for which the pIC50 was 8.77.

For the compound `O=C(c1ccc(-c2ccncc2)cc1)N1CCN(S(=O)(=O)c2cc3cc(Cl)ccc3o2)CC1` [Example A-85, 1-[(5-Chlorobenzo[b]furan-2-yl)sulfonyl]-4-[4-(pyridin-4-yl)benzoyl]piperazine], the IC50 is 1000 nM.

`O=C(c1ncc(-c2cccc[n+]2[O-])cn1)N1CCN(S(=O)(=O)c2cc3cc(Cl)ccc3[nH]2)CC1` [Example A-183, 2-[2-[[4-[(5-Chloroindol-2-yl)sulfonyl]piperazin-1-yl]carbonyl]pyrimidin-5-yl]pyridine N-oxide]: the IC50 is 4.7 nM.

On to `O=C(c1ncc(-c2cccc[n+]2[O-])cn1)N1CCN(S(=O)(=O)c2cc3ccc(Cl)cc3s2)CC1` [Example A-185, 2-[2-[[4-[(6-Chlorobenzo[b]thien-2-yl)sulfonyl]piperazin-1-yl]carbonyl]pyrimidin-5-yl]pyridine N-oxide], for which the IC50 was determined as 6.3 nM.

As to `CCC1CN(S(=O)(=O)c2cc3cc(Cl)ccc3[nH]2)CCN1C(=O)c1ncc(-c2cccc[n+]2[O-])cn1` (stereo not shown) [Example A-224, 2-[2-[[4-[(5-Chloroindol-2-yl)sulfonyl]-2-ethylpiperazin-1-yl]carbonyl]pyrimidin-5-yl]pyridine N-oxide], the IC50 came out at 7.6 nM.
